Data taken from PubChem BioAssay AID330 (DTP/NCI, 2004).
Where “and” joins values, the source holds several entries; their conditions need not be identical. Identical values can stand only once. Inconclusive results and toxic doses are left out. How the source made its calls: active means survival T/C of 150% or more; inactive means T/C below 125% in these data. Bridge positions count the residues as written; N and C are the ends. Square brackets hold non-standard residues; d marks the D form. Peptide text beside a SMILES is read from it. I, II: the chains in the order shown. * marks the point of attachment. Cbz = O=C(OCc1ccccc1)*; Nva = CCC[CH](N)C(=O)O

Tested on: P388 leukemia ip, CD2F1 mice, survival T/C
Experiment: NCI In Vivo Anticancer Drug Screen. Data for tumor model P388 Leukemia (intraperitoneal) in CD2F1 (CDF1) mice
Settings: endpoint: median survival time, higher = longer survival
Method in brief: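 Mice carrying the transplanted tumor received test compound or vehicle. Survival was recorded in each group, and the value is the treated-group measurement divided by that of the vehicle-treated control group.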

[1] = dose: 100.0 mg/kg/injection, schedule: Q04DX003 (ip), vehicle: saline with Tween-80
[2] = dose: 200.0 mg/kg/injection, schedule: Q04DX003 (ip), vehicle: saline with Tween-80
[3] = dose: 400.0 mg/kg/injection, schedule: Q04DX003 (ip), vehicle: saline with Tween-80
[4] = dose: 12.5 mg/kg/injection, schedule: Q01DX009 (ip), vehicle: saline
[5] = dose: 25.0 mg/kg/injection, schedule: Q01DX009 (ip), vehicle: saline
[6] = dose: 50.0 mg/kg/injection, schedule: Q01DX009 (ip), vehicle: saline
[7] = dose: 100.0 mg/kg/injection, schedule: Q01DX009 (ip), vehicle: saline
[8] = dose: 200.0 mg/kg/injection, schedule: Q01DX009 (ip), vehicle: saline
[9] = dose: 50.0 mg/kg/injection, schedule: Q01DX005 (ip), vehicle: Klucel (hydroxypropylcellulose) (HPC)
[10] = dose: 100.0 mg/kg/injection, schedule: Q01DX005 (ip), vehicle: Klucel (hydroxypropylcellulose) (HPC)
[11] = dose: 200.0 mg/kg/injection, schedule: Q01DX005 (ip), vehicle: Klucel (hydroxypropylcellulose) (HPC)
[12] = dose: 50.0 mg/kg/injection, schedule: Q01DX009 (ip), vehicle: saline with Tween-80
[13] = dose: 100.0 mg/kg/injection, schedule: Q01DX009 (ip), vehicle: saline with Tween-80
[14] = dose: 200.0 mg/kg/injection, schedule: Q01DX009 (ip), vehicle: saline with Tween-80
[15] = dose: 100.0 mg/kg/injection, schedule: Q01DX009 (ip), vehicle: Klucel (hydroxypropylcellulose) (HPC)
[16] = dose: 12.5 mg/kg/injection, schedule: Q01DX005 (ip), vehicle: saline with Tween-80
[17] = dose: 25.0 mg/kg/injection, schedule: Q01DX005 (ip), vehicle: saline with Tween-80
[18] = dose: 100.0 mg/kg/injection, schedule: Q01DX005 (ip), vehicle: saline with Tween-80
[19] = dose: 200.0 mg/kg/injection, schedule: Q01DX005 (ip), vehicle: saline with Tween-80
[20] = dose: 50.0 mg/kg/injection, schedule: Q01DX005 (ip), vehicle: saline with Tween-80
[21] = dose: 60.0 mg/kg/injection, schedule: Q01DX005 (ip), vehicle: saline with Tween-80
[22] = dose: 120.0 mg/kg/injection, schedule: Q01DX005 (ip), vehicle: saline with Tween-80
[23] = dose: 240.0 mg/kg/injection, schedule: Q01DX005 (ip), vehicle: saline with Tween-80

Measured: T/C

c1ccc([P+]23OCCN2CCO3)cc1
inactive: [1] 104 % of control | [2] 98 % of control | [3] 102 % of control

[Cl][Pd]([Cl])([Cl])[Cl]
inactive: [4] 86 % of control | [5] 96 % of control | [6] 95 % of control

c1cncc(CNCc2cccnc2)c1
inactive: [5] 94 % of control | [6] 110 % of control | [7] 97 % of control | [8] 94 % of control

CC(C)CC(NC(=O)C(N)CSSCC(N)C(=O)NC(CC(C)C)C(=O)O)C(=O)O (stereo not drawn) (I: H-Cys-Leu-OH / II: H-Cys-Leu-OH; disulfide I:1-II:1; configuration not given here)
inactive: [9] 106 % of control | [10] 113 % of control | [11] 92 % of control

O=C(NN(c1ccccc1)c1ccccc1)c1ccccc1[N+](=O)[O-]
inactive: [12] 93 % of control | [13] 104 % of control | [14] 93 % of control

CN(C)P1(=O)OCC(C(C)(C)C)CN1C (stereo not given)
inactive: dose: 50.0 mg/kg/injection, schedule: Q01DX009 (ip), vehicle: Klucel (hydroxypropylcellulose) (HPC) 100 % of control | [15] 107 % of control

CCCC(NC(=O)OCc1ccccc1)C(=O)NC(CCSC)C(N)=O (stereo not given) (Cbz-[Nva]-Met-NH2; configuration not given here)
inactive: [9] 106 % of control | [10] 97 % of control | [11] 88 % of control

c1ccc(CNSC(c2ccccc2)(c2ccccc2)c2ccccc2)cc1
inactive: dose: 100.0 mg/kg/injection, schedule: Q04DX002 (ip), vehicle: saline with Tween-80 101 % of control | dose: 200.0 mg/kg/injection, schedule: Q04DX002 (ip), vehicle: saline with Tween-80 102 % of control | dose: 400.0 mg/kg/injection, schedule: Q04DX002 (ip), vehicle: saline with Tween-80 92 % of control

CCc1cnc2ccccc2c1/C=C/c1ccc(N(C)C)cc1
inactive: [12] 98 % of control | [13] 105 % of control | [14] 103 % of control

O=C(Nc1cccc2c1C(=O)c1ccc(Nc3cc(NC(=O)c4ccccc4)c4c(c3)C(=O)c3ccccc3C4=O)cc1C2=O)c1ccccc1
inactive: [1] 100 % of control | [2] 100 % of control | [3] 109 % of control

COc1cc2c(cc1OC)C(=O)OC(=O)C2
inactive: [9] 100 % of control | [10] 92 % of control | [11] 95 % of control

Cn1c2ccccc2c2nnc(-n3nc(-c4ccc(Br)cc4)cc3N)nc21
inactive: [16] 98 % of control | [17] 87 % of control | [18] 93 % of control | [19] 95 % of control

CC(C)(O)C#CC(F)(F)C(F)(F)C(F)(F)C(F)(F)C(F)(F)C(F)(F)F
inactive: dose: 60.0 mg/kg/injection, schedule: Q01DX005 (ip), vehicle: saline 107 % of control | dose: 120.0 mg/kg/injection, schedule: Q01DX005 (ip), vehicle: saline 105 % of control | dose: 240.0 mg/kg/injection, schedule: Q01DX005 (ip), vehicle: saline 103 % of control

CCCCOC(OCCCC)C(C)N (stereo not given)
inactive: [16] 108 % of control | [17] 106 % of control | [20] 103 % of control and 107 % of control

CN=C(N)NN=C1c2ccccc2-c2ccccc21
inactive: dose: 25.0 mg/kg/injection, schedule: Q04DX002 (ip), vehicle: saline with Tween-80 97 % of control | dose: 50.0 mg/kg/injection, schedule: Q04DX002 (ip), vehicle: saline with Tween-80 101 % of control

C/C(=N/NC(=O)Cc1ccccc1)C(=NO)/C(C)=N\NC(=O)Cc1ccccc1
inactive: dose: 100.0 mg/kg/injection, schedule: Q04DX002 (ip), vehicle: saline 101 % of control | dose: 200.0 mg/kg/injection, schedule: Q04DX002 (ip), vehicle: saline 108 % of control | dose: 400.0 mg/kg/injection, schedule: Q04DX002 (ip), vehicle: saline 116 % of control

CC(C)(C)c1cc(/C=N\O)cc(C(C)(C)C)c1O
inactive: [6] 98 % of control | [7] 107 % of control | [8] 107 % of control

Cc1cc(C)nc(/C=C(\NC(=O)c2ccccc2)c2ccccc2)c1
inactive: [21] 108 % of control | [22] 102 % of control | [23] 101 % of control

Cc1cc(C)n(-c2cc(N3CCN(C)CC3)ncn2)n1
inactive: [6] 98 % of control | [7] 98 % of control | [8] 98 % of control

CC(C)(C)C(=O)Oc1ccc(Br)cc1
inactive: dose: 100.0 mg/kg/injection, schedule: Q01DX001 (ip), vehicle: Klucel (hydroxypropylcellulose) (HPC) 106 % of control | dose: 200.0 mg/kg/injection, schedule: Q01DX001 (ip), vehicle: Klucel (hydroxypropylcellulose) (HPC) 106 % of control | dose: 400.0 mg/kg/injection, schedule: Q01DX001 (ip), vehicle: Klucel (hydroxypropylcellulose) (HPC) 108 % of control

O=C(N1CCN(C(=O)S(=O)(=O)c2ccc(F)cc2)CC1)S(=O)(=O)c1ccc(F)cc1
inactive: [9] 99 % of control | [10] 98 % of control | [11] 100 % of control

COc1ccccc1N1C(=S)N(c2cccc(Cl)c2Cl)C(=O)C(N=Nc2cccc(Cl)c2Cl)C1O (stereo not given)
inactive: dose: 100.0 mg/kg/injection, schedule: Q04DX003 (ip), vehicle: Klucel (hydroxypropylcellulose) (HPC) 104 % of control | dose: 200.0 mg/kg/injection, schedule: Q04DX003 (ip), vehicle: Klucel (hydroxypropylcellulose) (HPC) 104 % of control | dose: 400.0 mg/kg/injection, schedule: Q04DX003 (ip), vehicle: Klucel (hydroxypropylcellulose) (HPC) 98 % of control

N#CCc1c(F)c(F)c(F)c(F)c1F
inactive: dose: 30.0 mg/kg/injection, schedule: Q01DX005 (ip), vehicle: saline with Tween-80 100 % of control | [21] 99 % of control and 108 % of control

O=C1c2cccnc2C(=O)c2c(O)ccc(O)c21
inactive: [12] 95 % of control | [13] 95 % of control | [14] 99 % of control | dose: 400.0 mg/kg/injection, schedule: Q01DX009 (ip), vehicle: saline with Tween-80 100 % of control

CC(C)c1c(C[N+](C)([O-])C(C)Cc2ccccc2)n(C)n(-c2ccccc2)c1=O (stereo not given)
inactive: [21] 106 % of control | [22] 102 % of control | [23] 100 % of control

CCOC(=O)SC(=S)OCC
inactive: dose: 6.25 mg/kg/injection, schedule: Q01DX009 (ip), vehicle: saline with Tween-80 108 % of control | dose: 12.5 mg/kg/injection, schedule: Q01DX009 (ip), vehicle: saline with Tween-80 114 % of control | dose: 25.0 mg/kg/injection, schedule: Q01DX009 (ip), vehicle: saline with Tween-80 100 % of control | [12] 87 % of control

CN(Cc1ccccc1)C1=CC(=O)C(N(C)Cc2ccccc2)=CC1=O
inactive: [20] 105 % of control | [18] 115 % of control | [19] 101 % of control

CC1(C)NN=C([N+](=O)[O-])C1c1ccccc1 (stereo not given)
inactive: [21] 107 % of control | [22] 111 % of control | [23] 107 % of control

O=Cc1cccc(C=O)c1
inactive: dose: 0.63 mg/kg/injection, schedule: Q04DX002 (ip), vehicle: saline with Tween-80 106 % of control | dose: 1.25 mg/kg/injection, schedule: Q04DX002 (ip), vehicle: saline with Tween-80 105 % of control | dose: 2.5 mg/kg/injection, schedule: Q04DX002 (ip), vehicle: saline with Tween-80 107 % of control

c1cc2c(cc1C1SCSCS1)OCO2
inactive: [15] 100 % of control | dose: 200.0 mg/kg/injection, schedule: Q01DX009 (ip), vehicle: Klucel (hydroxypropylcellulose) (HPC) 120 % of control | dose: 400.0 mg/kg/injection, schedule: Q01DX009 (ip), vehicle: Klucel (hydroxypropylcellulose) (HPC) 110 % of control

COc1ccc2ccc3oc([N+](=O)[O-])cc3c2c1
inactive: [9] 108 % of control | [10] 119 % of control | dose: 400.0 mg/kg/injection, schedule: Q01DX005 (ip), vehicle: Klucel (hydroxypropylcellulose) (HPC) 92 % of control

O=C1OC2C(COC(=O)c3cc(O)c(O)c(O)c3)OC(OC(=O)c3cc(O)c(O)c(O)c3)C(OC(=O)c3cc(O)c(O)c4c3C3C1=CC(=O)[C@](O)(O4)C3(O)O)C2OC(=O)c1cc(O)c(O)c(O)c1 (stereo not given in full)
inactive: dose: 6.25 mg/kg/injection, schedule: Q01DX009 (ip), vehicle: saline 98 % of control | [4] 99 % of control | [5] 98 % of control

CCN(CC)C1CS(=O)(=O)OC(c2ccccc2)=C1C (stereo not given)
inactive: [20] 100 % of control | [18] 102 % of control | [19] 100 % of control
